In publication PMC10157847 (ACS Omega, 2023):

Molecular target: T1, α-amylase from porcine pancreatic (Sus scrofa, UniProt P00690)
T1 sequence (P00690 16-511): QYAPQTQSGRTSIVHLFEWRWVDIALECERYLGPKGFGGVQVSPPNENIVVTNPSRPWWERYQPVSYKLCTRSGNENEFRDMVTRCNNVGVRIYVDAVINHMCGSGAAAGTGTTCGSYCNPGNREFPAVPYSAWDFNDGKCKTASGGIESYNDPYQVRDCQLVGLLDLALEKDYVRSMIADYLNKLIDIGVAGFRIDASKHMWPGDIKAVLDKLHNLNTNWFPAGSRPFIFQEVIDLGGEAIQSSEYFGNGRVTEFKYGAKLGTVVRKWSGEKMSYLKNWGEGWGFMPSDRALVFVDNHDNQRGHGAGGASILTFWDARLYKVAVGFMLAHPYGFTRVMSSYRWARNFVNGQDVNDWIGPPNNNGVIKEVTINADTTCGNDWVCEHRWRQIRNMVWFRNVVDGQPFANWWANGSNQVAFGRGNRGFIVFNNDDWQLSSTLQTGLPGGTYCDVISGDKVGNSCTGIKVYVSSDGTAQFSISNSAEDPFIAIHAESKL
Test: In vitro α-amylase inhibition assay
Type: biochemical
Settings: not given

Row | SMILES | IC50
1 | Cc1ccc([N+](=O)[O-])cc1S(=O)(=O)N/N=C1\C(=O)Nc2ccc([N+](=O)[O-])cc21 [Compound 4] | 13.3 ± 0.3 µM
2 | O=C1Nc2ccc([N+](=O)[O-])cc2/C1=N/NS(=O)(=O)c1ccc([N+](=O)[O-])cc1 [Compound 5] | 13.2 ± 0.2 µM
3 | Cc1ccc([N+](=O)[O-])cc1S(=O)(=O)N/N=C1\C(=O)Nc2ccccc21 [Compound 9] | 13.2 ± 0.3 µM

The next lines start with the values.

Row | IC50 | SMILES
4 | 13.2 ± 0.2 µM | O=C1Nc2ccccc2/C1=N/NS(=O)(=O)c1ccc([N+](=O)[O-])cc1 [Compound 10]
5 | 14.9 ± 0.2 µM | Cc1ccc([N+](=O)[O-])cc1S(=O)(=O)N/N=C1\C(=O)Nc2ccc(Cl)cc21 [Compound 15, (Z)-N'-(5-chloro-2-oxoindolin-3-ylidene)-2-methyl-5-nitrobenzenesulfonohydrazide]

Same assay, conditions: read-out: IC50 ± SEM Alpha-amylase; porcine pancreatic α-amylase, starch

Row | IC50 | SMILES
6 | 12.3 ± 20 µM | O=C1Nc2ccc(Cl)cc2/C1=N/NS(=O)(=O)c1ccc([N+](=O)[O-])cc1 [Compound 16, (Z)-N'-(5-chloro-2-oxoindolin-3-ylidene)-4-nitrobenzenesulfonohydrazide]
